Columns and labels:
[1] = human immunotherapy, repeated KRN7000 administration; cited from earlier work
B16 melanoma cells = experiment: Therapeutic vaccination against B16 tumour cells; type: in vivo; settings: B16 melanoma subcutaneous in C57BL/6 mice, intratumoural treatment when tumours palpable; FIG. 4
Experimental: C57BL/6 mice (n=5/group) were inoculated with 2.5×10^5 B16 melanoma cells kindly provided by Dr. Dellabona (Istituto scientifico San Raffaele, Milan, Sartorius R et al., 2011) subcutaneously in the left side. When the tumours became palpable, the mice were vaccinated with PBS, 2.5 micrograms aGalCer, 50 micrograms of fdWT bacteriophages or 50 micrograms of fdWT/aGalCer in a total volume of 80 microliters. Tumour growth was assessed three times a week using a caliber and reported as tumour volume (in mm^3) according to the formula (d^2×D)/2, where d and D are the minor diameter and the major one, respectively. The mice were sacrificed when the size of the tumour had exceeded 1,500 mm^3, in compliance with the established guidelines. Survival was recorded as the percentage of surviving animals.

splenocytes = settings: stated as known, cited from earlier work
iNKT cells = settings: animal model; prevents release of cytokines after recall stimulations (Sullivan and Kronenberg 2005); cited from earlier work

SMILES	tolerability in patients [1]	tumour growth (B16 melanoma cells)	levels of T-cell receptor (TCR) on iNKTs (splenocytes; administered intravenously to mice)	ability of splenocytes to proliferate and produce cytokines after in vitro restimulation with aGalCer (splenocytes; mice injected with soluble aGalCer, compared to naive splenocytes)	clinical response in patients [1]	anergy of iNKT cells (iNKT cells)
CCCCCCCCCCCCCCCCCCCCCCCCCC(=O)N[C@@H](CO[C@H]1OC(CO)[C@H](O)C(O)C1O)[C@H](O)[C@H](O)CCCCCCCCCCCCCC (stereo partly drawn) [aGalCer, alpha-Galactosylceramide]	well tolerated					
CCCCCCCCCCCCCCCCCCCCCCCCCC(=O)N[C@@H](CO[C@H]1O[C@H](CO)[C@H](O)[C@H](O)[C@H]1O)[C@H](O)[C@H](O)CCCCCCCCCCCCCC [aGalCer, alpha-Galactosylceramide]		not able to protect animals from tumour growth	decrease	lose rapidly their ability to proliferate and produce cytokines	weak clinical response	induces long term cell anergy of iNKT cells

From US11744901B2, “Phage conjugates and uses thereof” (CONSIGLIO NAZIONALE DELLE RICERCHE, priority 2017, dated 2023)
